The values that follow come from ChEMBL document CHEMBL1250536, “Identification of small molecule inhibitors of telomerase activity through transcriptional regulation of hTERT and calcium induction pathway in human lung adenocarcinoma A549 cells” (2010).

Active and inactive are the calls of the source. No cut-off for these calls is given here.

Experiment [1] deals with Telomerase reverse transcriptase (Homo sapiens) (UniProt O14746). The experiment can be described thus: Inhibition of telomerase in human A549 cells at 25 uM after 24 hrs by TRAP assay. It is filed as cell-based.
Sequence of Telomerase reverse transcriptase (Homo sapiens) (O14746 whole entry): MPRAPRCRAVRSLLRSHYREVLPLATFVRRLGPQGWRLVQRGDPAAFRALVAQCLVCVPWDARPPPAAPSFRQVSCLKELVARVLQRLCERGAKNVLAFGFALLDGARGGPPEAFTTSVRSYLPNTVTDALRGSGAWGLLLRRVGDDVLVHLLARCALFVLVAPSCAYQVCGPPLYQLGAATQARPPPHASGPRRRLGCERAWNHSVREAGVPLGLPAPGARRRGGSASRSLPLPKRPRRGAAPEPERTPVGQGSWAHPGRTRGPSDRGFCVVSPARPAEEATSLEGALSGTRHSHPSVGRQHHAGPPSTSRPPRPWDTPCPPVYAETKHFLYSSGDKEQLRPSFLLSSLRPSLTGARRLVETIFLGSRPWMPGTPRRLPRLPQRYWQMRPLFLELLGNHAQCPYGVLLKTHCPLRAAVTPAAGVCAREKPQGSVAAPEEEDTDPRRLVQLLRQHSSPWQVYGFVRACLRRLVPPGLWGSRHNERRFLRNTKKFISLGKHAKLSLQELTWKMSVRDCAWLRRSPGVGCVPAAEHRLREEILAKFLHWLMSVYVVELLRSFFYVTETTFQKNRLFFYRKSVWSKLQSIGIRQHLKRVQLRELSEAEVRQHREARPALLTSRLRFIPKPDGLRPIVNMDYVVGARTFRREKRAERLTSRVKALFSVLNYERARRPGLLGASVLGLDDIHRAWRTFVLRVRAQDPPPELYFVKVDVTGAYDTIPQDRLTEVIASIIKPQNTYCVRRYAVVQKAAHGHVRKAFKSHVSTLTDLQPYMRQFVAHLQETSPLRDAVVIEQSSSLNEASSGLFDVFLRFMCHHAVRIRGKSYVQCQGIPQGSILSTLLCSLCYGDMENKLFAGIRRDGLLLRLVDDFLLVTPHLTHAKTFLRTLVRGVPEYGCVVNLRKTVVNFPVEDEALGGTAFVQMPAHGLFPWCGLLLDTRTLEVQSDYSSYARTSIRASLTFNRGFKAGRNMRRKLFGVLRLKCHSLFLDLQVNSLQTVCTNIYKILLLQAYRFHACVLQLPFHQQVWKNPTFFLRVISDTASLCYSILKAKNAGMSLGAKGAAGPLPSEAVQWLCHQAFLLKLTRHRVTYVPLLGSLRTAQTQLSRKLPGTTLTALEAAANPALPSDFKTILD
For experiment [2] the target is unchanged. The experiment can be described thus: Inhibition of telomerase in human A549 cells after 24 hrs by TRAP assay. It counts as cell-based.
Experiment [3] shares this target. The experiment can be described thus: Inhibition of telomerase in human A549 cells at 25 uM by TRAP assay. It counts as cell-based. Conditions: TDE = time-dependent effect.
In experiment [4] the test system is A549. The experiment can be described thus: Cytotoxicity against human A549 cells assessed as reduction of cell proliferation after 24 hrs by MTS assay. It is filed as functional, cell-based. (In general: Tetrazolium dyes change colour on reduction, which living cells bring about.)
The subject of experiment [5] is A549. The experiment can be described thus: Cytotoxicity against human A549 cells assessed as reduction of cell proliferation at 50 uM after 24 hrs by MTS assay. More on the design: scale not given: the % may be the effect or the level left. It counts as functional.
Experiment [6] concerns A549. The experiment can be described thus: Reduction of hTERT mRNA expression in human A549 cells after 6 hrs by RT-PCR analysis. It counts as functional, cell-based.
Experiment [7] concerns A549. The experiment can be described thus: Reduction of hTR mRNA expression in human A549 cells at up to 50 uM after 6 hrs by RT-PCR analysis. It is filed as functional, cell-based.
Experiment [8] deals with A549. The experiment can be described thus: Reduction of GADD153 mRNA expression in human A549 cells at up to 50 uM after 6 hrs by RT-PCR analysis. It is filed as functional, cell-based.
The test system of experiment [9] is A549. The experiment can be described thus: Reduction of hTERT mRNA expression in human A549 cells at 50 uM after 6 hrs by RT-PCR analysis. It is filed as functional. Set-up: scale not given: the % may be the effect or the level left.
Experiment [10] has as its system A549. The experiment can be described thus: Reduction of hTERT protein expression in human A549 cells after 6 hrs by Western blotting. It counts as functional, cell-based. For orientation: Immunoblotting shows a protein as a band on a membrane.
The subject of experiment [11] is A549. The experiment can be described thus: Reduction of colony formation in human A549 cells at 6.25 uM after 24 hrs by anchorage-independence cell growth assay relative to control. It is filed as functional. Set-up: scale not given: the % may be the effect or the level left.
Experiment [12] concerns A549. The experiment can be described thus: Reduction of colony formation in human A549 cells at 12.5 uM after 24 hrs by anchorage-independence cell growth assay relative to control. It is filed as functional. More on the design: scale not given: the % may be the effect or the level left.
Experiment [13] has as its system A549. The experiment can be described thus: Reduction of colony formation in human A549 cells at 25 uM after 24 hrs by anchorage-independence cell growth assay relative to control. It is filed as functional. Set-up: scale not given: the % may be the effect or the level left.
Experiment [14] addresses Telomerase reverse transcriptase (Homo sapiens) (UniProt O14746). The experiment can be described thus: Inhibition of telomerase in human A549 cells assessed as increase of intracellular calcium release after 24 hrs using Fluo-3 AM staining by microscopic analysis. It is filed as cell-based.
Experiment [15] shares this target. The experiment can be described thus: Inhibition of telomerase in human A549 cells assessed as increase of intracellular calcium release after 24 hrs using Fluo-3 AM staining by microscopic analysis in presence of BAPTA-AM pretreated for 1 hr. It is filed as cell-based. A general note: Calcium assays in cells follow changes in intracellular calcium, usually with a dye or a luminescent sensor.

The target is the same in experiment [16]. The experiment can be described thus: Inhibition of telomerase in human A549 cells at 25 uM after 24 hrs by TRAP assay in presence of 10 uM of MEK inhibitor U0126 pretreated for 1 hr. It is filed as cell-based.
The target is the same in experiment [17]. The experiment can be described thus: Inhibition of telomerase in human A549 cells at 25 uM after 24 hrs by TRAP assay in presence of 20 uM of ERK inhibitor PD-98059 pretreated for 1 hr. It is filed as cell-based.
Experiment [18] shares this target. The experiment can be described thus: Inhibition of telomerase in human A549 cells at 25 uM after 24 hrs by TRAP assay in presence of 50 uM of MAPK inhibitor SB-203580 pretreated for 1 hr. It is filed as cell-based.
The target is the same in experiment [19]. The experiment can be described thus: Inhibition of telomerase in human A549 cells at 25 uM after 24 hrs by TRAP assay in presence of 20 uM of intracellular calcium chelator BAPTA-AM pretreated for 1 hr. It counts as cell-based.
Experiment [20] shares this target. The experiment can be described thus: Inhibition of telomerase in human A549 cells at 25 uM after 24 hrs by TRAP assay in presence of 20 uM of 26S proteasome inhibitor MG132 pretreated for 1 hr. It counts as cell-based.
Experiment [21] shares this target. The experiment can be described thus: Inhibition of telomerase in human A549 cells at 25 uM after 24 hrs by TRAP assay in presence of 20 nM of nuclear export inhibitor leptomycin B pretreated for 1 hr. It counts as cell-based.
Experiment [22] shares this target. The experiment can be described thus: Inhibition of telomerase in human A549 cells at 25 uM after 24 hrs by TRAP assay in presence of 50 uM of PI3 K inhibitor LY-294002 pretreated for 1 hr. It counts as cell-based.
Experiment [23] concerns A549. The experiment can be described thus: Reduction of hTERT mRNA expression in human A549 cells after 6 hrs by RT-PCR analysis in presence of 20 uM of intracellular calcium chelator BAPTA-AM pretreated for 1 hr. It is filed as functional, cell-based.
In experiment [24] the test system is A549. The experiment can be described thus: Reduction of hTR mRNA expression in human A549 cells at 20 uM after 6 hrs by RT-PCR analysis. It counts as functional, cell-based.
In experiment [25] the test system is A549. The experiment can be described thus: Reduction of hTERT protein expression in human A549 cells at 25 uM after 24 hrs by immunofluorescence assay. It counts as functional, cell-based.
In experiment [26] the test system is A549. The experiment can be described thus: Translocation of hTERT from nuclei to cytoplasm in human A549 cells at 25 uM after 24 hrs by immunofluorescence assay. It counts as functional, cell-based.
Experiment [27] deals with A549. The experiment can be described thus: Reduction of hTERT protein expression in human A549 cells at 25 uM after 24 hrs by immunofluorescence assay in presence of intracellular calcium chelator BAPTA-AM pretreated for 1 hr. It is filed as functional, cell-based.

As to `COc1cc(O)c2c(c1OC)O[C@H](c1ccccc1)CC2=O`, the inhibition entry in experiment [1] is “inactive”.

Regarding `COc1cccc(/C=C/C(=O)c2cc(OC)c(OC)c(OC)c2)c1OC`, in experiment [1], the inhibition result was “Active”.

For `C[C@H]1O[C@H](Oc2cc(O)c3c(=O)c(O[C@H]4O[C@H](C)[C@@H](O[C@H]5O[C@H](CO)[C@@H](O)[C@H](O)[C@H]5O)[C@H](O)[C@@H]4O)c(-c4ccc(O)cc4)oc3c2)[C@@H](O)[C@@H](O)[C@@H]1O`, the inhibition result in experiment [1] is “inactive”.

As to `COc1cc(OC)c2c(c1)O[C@H](c1ccccc1)CC2=O`, in experiment [1], the inhibition entry was “inactive”.

As to `COC[C@H](Cc1ccc(OC)c(OC)c1)[C@H](COC)Cc1ccc(OC)c(OC)c1`, in experiment [1], the inhibition entry is “inactive”.

Turning to `COc1cc(O)c(C(=O)/C=C/c2cccc(OC)c2OC)c(OC)c1`, the inhibition result in experiment [1], in experiment [16], in [17], in [18], in [20] and in [21] was “Active” each time. For the same compound, the inhibition result in experiment [22] was “Active”. The values for the inhibition result in [2], in [3] and in experiment [14] were “Dose-dependent effect”, “tde” and “Dose-dependent effect”, respectively. Moreover, the Activity result was “Dose-dependent effect” in [4]; 59% in experiment [5]; “Dose-dependent effect” in [6]; 92% in experiment [9]; “Dose-dependent effect” in experiment [10]; 23% in [11]. The values for the Activity in [12] and in experiment [13] were 96% and 70%, respectively. The outcome in [7], in [8], in experiment [23], in [24], in experiment [26] and in experiment [27] was inactive. Besides, the inhibition entry in [15] and in experiment [19] was “inactive” throughout. In addition, in experiment [25], the outcome was Active.

Take `COc1c(O)cc(C(=O)O)cc1O`: the inhibition result in [1] is “inactive”.

On to `COc1cc(/C=C/C(=O)c2cc(OC)c(OC)c(OC)c2)cc(OC)c1OC`, for which the inhibition result in experiment [1] was “Active”.

Turning to `COc1ccc(/C=C2/COc3cc(O)ccc3C2=O)cc1`, the inhibition entry in experiment [1] was “Active”.

Consider `COc1ccc(/C=C/C(=O)c2cc(OC)c(OC)c(OC)c2)cc1OC`, for which the inhibition result in experiment [1] was “Active”.

As for `COc1cc(C(=O)/C=C/c2ccc(N(C)C)cc2)cc(OC)c1OC`, the inhibition entry in experiment [1] was “inactive”.
